In PMC4730229, “Benzobisthiazoles Represent a Novel Scaffold for Kinase Inhibitors of CLK Family Members” (Biochemistry, 2015):

Tests used:
Assay in all cases: Kinase profiling (radioactive filter binding)
Type in all cases: biochemical
Aurora B = Aurora B (Homo sapiens, UniProt Q96GD4); details: 1 uM compound
Procedure: (§1) 3A5 and 5E4 were sent to the International Centre for Kinase Profiling at the MRC Protein Phosphorylation and Ubiquitylation Unit for profiling (as described in ref ([17])). Compounds were profiled against 140 kinases using a radioactive ([^33P]ATP) filter binding assay at a concentration of 1 μM. Results were obtained as inhibition of kinase activity and are listed in Supplementary Table 2.

BTK = BTK (Homo sapiens, UniProt Q06187); details: 1 uM compound
Procedure: as §1

CDK2-Cyclin A = CDK2-Cyclin A (Homo sapiens, UniProt P24941); details: 1 uM compound
Procedure: as §1

CLK2 = CLK2 (Homo sapiens, UniProt P49760); details: for CLK2 activity in kinase profiling: 1 uM compound; for inhibition at 1 µM: 1 μM compound, read-out: inhibition of CLK2 in kinase panel
Procedure: as §1

CSK = CSK (Homo sapiens, UniProt P41240); details: 1 uM compound
Procedure: as §1

DDR2 = DDR2 (Homo sapiens, UniProt Q16832); details: 1 uM compound
Procedure: as §1

DYRK2 = DYRK2 (Homo sapiens, UniProt Q92630); details: 1 uM compound
Procedure: as §1

EPH-A2 = EPH-A2 (Homo sapiens, UniProt P29317); details: 1 uM compound
Procedure: as §1

EPH-B1 = EPH-B1 (Homo sapiens, UniProt P54762); details: 1 uM compound
Procedure: as §1

EPH-B4 = EPH-B4 (Homo sapiens, UniProt P54760); details: 1 uM compound
Procedure: as §1

HER4 = HER4 (Homo sapiens, UniProt Q15303); details: 1 uM compound
Procedure: as §1

HIPK1 = HIPK1 (Homo sapiens, UniProt Q86Z02); details: 1 uM compound
Procedure: as §1

HIPK3 = HIPK3 (Homo sapiens, UniProt Q9H422); details: 1 uM compound
Procedure: as §1

IKKe = IKKe (Homo sapiens, UniProt Q14164); details: 1 uM compound
Procedure: as §1

IRAK1 = IRAK1 (Homo sapiens, UniProt P51617); details: 1 uM compound
Procedure: as §1

IRAK4 = IRAK4 (Homo sapiens, UniProt Q9NWZ3); details: 1 uM compound
Procedure: as §1

JAK2 = JAK2 (Homo sapiens, UniProt O60674); details: 1 uM compound
Procedure: as §1

JNK3 = JNK3 (Homo sapiens, UniProt P53779); details: 1 uM compound
Procedure: as §1

MAP4K3 = MAP4K3 (Homo sapiens, UniProt Q8IVH8); details: 1 uM compound
Procedure: as §1

MAP4K5 = MAP4K5 (Homo sapiens, UniProt Q9Y4K4); details: 1 uM compound
Procedure: as §1

MARK4 = MARK4 (Homo sapiens, UniProt Q96L34); details: 1 uM compound
Procedure: as §1

MINK1 = MINK1 (Homo sapiens, UniProt Q8N4C8); details: 1 uM compound
Procedure: as §1

MPSK1 = MPSK1 (Homo sapiens, UniProt O75716); details: 1 uM compound
Procedure: as §1

MST4 = MST4 (Homo sapiens, UniProt Q9P289); details: 1 uM compound
Procedure: as §1

NEK2a = NEK2a (Homo sapiens, UniProt P51955); details: 1 uM compound
Procedure: as §1

NUAK1 = NUAK1 (Homo sapiens, UniProt O60285); details: 1 uM compound
Procedure: as §1

PAK2 = PAK2 (Homo sapiens, UniProt Q13177); details: 1 uM compound
Procedure: as §1

PAK4 = PAK4 (Homo sapiens, UniProt O96013); details: 1 uM compound
Procedure: as §1

PAK5 = PAK5 (Homo sapiens, UniProt Q9P286); details: 1 uM compound
Procedure: as §1

PIM2 = PIM2 (Homo sapiens, UniProt Q9P1W9); details: 1 uM compound
Procedure: as §1

PKBa = PKBa (Homo sapiens, UniProt P31749); details: 1 uM compound
Procedure: as §1

PKCa = PKCa (Homo sapiens, UniProt P17252); details: 1 uM compound
Procedure: as §1

PKCγ = PKCγ (Homo sapiens, UniProt P05129); details: 1 uM compound
Procedure: as §1

PRK2 = PRK2 (Homo sapiens, UniProt Q16513); details: 1 uM compound
Procedure: as §1

SGK1 = SGK1 (Homo sapiens, UniProt O00141); details: 1 uM compound
Procedure: as §1

SIK2 = SIK2 (Homo sapiens, UniProt Q9H0K1); details: 1 uM compound
Procedure: as §1

SRPK1 = SRPK1 (Homo sapiens, UniProt Q96SB4); details: 1 uM compound
Procedure: as §1

TAO1 = TAO1 (Homo sapiens, UniProt Q7L7X3); details: 1 uM compound
Procedure: as §1

TESK1 = TESK1 (Homo sapiens, UniProt Q15569); details: 1 uM compound
Procedure: as §1

TTBK1 = TTBK1 (Homo sapiens, UniProt Q5TCY1); details: 1 uM compound
Procedure: as §1

ULK1 = ULK1 (Homo sapiens, UniProt O75385); details: 1 uM compound
Procedure: as §1

WNK1 = WNK1 (Homo sapiens, UniProt Q9H4A3); details: 1 uM compound
Procedure: as §1

CLK2, sequence (P49760 whole entry): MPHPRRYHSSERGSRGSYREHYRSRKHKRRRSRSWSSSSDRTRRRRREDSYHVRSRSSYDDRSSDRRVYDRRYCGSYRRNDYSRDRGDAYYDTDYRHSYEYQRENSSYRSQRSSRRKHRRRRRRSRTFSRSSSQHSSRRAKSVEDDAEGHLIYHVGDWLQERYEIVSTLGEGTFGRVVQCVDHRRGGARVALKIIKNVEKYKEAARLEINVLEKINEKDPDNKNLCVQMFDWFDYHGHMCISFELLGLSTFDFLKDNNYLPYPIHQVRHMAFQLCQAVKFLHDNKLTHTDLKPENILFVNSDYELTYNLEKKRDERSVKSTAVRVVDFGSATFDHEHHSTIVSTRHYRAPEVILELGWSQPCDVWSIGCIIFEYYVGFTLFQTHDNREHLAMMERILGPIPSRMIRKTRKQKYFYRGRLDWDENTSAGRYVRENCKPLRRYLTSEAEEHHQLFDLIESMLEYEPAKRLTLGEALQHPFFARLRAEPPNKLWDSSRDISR
PIM2, sequence (Q9P1W9 whole entry): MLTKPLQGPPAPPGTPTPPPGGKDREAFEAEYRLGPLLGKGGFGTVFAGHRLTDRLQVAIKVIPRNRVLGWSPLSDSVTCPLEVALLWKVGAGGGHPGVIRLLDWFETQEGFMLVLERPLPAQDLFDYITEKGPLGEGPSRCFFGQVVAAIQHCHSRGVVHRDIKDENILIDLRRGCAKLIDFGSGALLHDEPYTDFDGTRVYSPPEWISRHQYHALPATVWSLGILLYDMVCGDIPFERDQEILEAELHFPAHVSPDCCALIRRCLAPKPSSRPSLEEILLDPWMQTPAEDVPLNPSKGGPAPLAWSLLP
EPH-B1, sequence (P54762 18-984): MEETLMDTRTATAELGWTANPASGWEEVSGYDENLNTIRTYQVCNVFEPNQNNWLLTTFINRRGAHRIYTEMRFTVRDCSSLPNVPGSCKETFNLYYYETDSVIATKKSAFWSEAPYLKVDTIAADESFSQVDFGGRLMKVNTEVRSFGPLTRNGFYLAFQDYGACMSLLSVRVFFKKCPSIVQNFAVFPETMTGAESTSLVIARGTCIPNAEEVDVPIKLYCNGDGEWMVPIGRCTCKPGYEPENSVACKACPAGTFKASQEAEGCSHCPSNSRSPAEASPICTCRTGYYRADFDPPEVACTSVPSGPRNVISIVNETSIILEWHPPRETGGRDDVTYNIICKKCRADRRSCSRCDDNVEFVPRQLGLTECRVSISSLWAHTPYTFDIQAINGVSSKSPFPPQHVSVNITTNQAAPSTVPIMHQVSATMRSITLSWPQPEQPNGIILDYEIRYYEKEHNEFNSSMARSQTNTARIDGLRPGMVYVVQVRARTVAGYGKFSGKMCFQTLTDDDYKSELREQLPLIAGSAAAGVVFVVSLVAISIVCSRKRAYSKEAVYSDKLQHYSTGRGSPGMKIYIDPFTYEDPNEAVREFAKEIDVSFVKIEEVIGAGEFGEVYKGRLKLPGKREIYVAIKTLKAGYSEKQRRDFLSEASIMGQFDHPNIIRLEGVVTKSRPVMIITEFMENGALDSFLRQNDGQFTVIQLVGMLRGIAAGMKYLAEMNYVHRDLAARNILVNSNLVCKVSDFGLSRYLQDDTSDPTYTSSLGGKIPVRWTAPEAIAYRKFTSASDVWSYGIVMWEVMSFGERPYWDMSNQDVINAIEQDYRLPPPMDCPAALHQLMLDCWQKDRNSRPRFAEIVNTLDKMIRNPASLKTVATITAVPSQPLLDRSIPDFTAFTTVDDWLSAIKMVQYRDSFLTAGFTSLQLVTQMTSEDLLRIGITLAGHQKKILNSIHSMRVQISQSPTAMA
PKBa, sequence (P31749 whole entry): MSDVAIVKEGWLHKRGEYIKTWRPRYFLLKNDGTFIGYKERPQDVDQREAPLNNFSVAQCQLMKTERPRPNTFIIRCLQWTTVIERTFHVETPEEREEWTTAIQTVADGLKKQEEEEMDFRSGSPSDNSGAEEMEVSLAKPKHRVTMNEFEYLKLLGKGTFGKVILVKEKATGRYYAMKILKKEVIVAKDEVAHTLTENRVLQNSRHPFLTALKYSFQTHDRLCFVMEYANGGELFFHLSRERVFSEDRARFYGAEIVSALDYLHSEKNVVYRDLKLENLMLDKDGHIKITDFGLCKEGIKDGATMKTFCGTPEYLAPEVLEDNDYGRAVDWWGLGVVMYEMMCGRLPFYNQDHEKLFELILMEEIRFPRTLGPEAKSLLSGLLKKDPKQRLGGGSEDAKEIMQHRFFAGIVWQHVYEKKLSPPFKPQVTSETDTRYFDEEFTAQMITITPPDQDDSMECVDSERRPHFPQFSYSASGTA
CSK, sequence (P41240 whole entry): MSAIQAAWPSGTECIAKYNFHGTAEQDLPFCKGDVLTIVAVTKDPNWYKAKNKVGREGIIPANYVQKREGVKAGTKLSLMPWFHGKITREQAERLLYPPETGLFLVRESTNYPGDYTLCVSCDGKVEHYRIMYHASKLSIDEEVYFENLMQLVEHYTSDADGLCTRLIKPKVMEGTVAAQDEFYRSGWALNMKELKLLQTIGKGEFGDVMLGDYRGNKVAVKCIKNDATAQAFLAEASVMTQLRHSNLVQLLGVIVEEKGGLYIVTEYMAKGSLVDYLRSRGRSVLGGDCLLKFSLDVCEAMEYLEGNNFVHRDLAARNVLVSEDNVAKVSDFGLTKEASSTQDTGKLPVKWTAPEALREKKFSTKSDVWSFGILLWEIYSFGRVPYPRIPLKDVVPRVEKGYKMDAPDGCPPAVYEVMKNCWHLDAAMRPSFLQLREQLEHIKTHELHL
IRAK4, sequence (Q9NWZ3 whole entry): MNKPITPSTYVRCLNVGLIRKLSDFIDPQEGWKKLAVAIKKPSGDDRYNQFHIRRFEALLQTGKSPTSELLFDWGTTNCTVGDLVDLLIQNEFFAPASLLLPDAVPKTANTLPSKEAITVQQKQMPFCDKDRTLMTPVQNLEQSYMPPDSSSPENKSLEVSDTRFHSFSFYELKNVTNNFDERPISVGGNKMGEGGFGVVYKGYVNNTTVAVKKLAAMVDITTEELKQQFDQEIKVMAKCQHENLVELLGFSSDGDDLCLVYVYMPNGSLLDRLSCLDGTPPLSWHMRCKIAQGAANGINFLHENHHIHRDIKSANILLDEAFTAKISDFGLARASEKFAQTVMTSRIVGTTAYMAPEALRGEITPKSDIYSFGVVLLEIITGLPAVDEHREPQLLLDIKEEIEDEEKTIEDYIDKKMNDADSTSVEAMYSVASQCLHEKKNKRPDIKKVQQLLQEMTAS
SRPK1, sequence (Q96SB4 whole entry): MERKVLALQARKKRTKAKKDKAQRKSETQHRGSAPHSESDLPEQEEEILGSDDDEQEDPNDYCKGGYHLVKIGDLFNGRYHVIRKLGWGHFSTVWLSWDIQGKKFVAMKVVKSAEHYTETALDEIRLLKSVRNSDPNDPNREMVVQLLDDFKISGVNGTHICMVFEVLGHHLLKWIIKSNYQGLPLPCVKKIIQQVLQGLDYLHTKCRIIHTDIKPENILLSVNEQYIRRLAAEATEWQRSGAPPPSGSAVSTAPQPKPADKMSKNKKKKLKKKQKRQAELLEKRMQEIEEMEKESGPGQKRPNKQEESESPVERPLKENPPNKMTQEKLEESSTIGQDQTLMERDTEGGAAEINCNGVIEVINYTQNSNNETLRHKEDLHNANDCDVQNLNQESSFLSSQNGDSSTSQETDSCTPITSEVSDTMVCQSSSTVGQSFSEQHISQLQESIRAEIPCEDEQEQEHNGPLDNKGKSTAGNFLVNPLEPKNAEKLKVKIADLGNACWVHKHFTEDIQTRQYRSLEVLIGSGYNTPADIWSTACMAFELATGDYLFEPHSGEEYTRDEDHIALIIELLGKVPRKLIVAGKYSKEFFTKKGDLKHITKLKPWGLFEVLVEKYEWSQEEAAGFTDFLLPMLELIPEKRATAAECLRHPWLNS
SGK1, sequence (O00141 whole entry): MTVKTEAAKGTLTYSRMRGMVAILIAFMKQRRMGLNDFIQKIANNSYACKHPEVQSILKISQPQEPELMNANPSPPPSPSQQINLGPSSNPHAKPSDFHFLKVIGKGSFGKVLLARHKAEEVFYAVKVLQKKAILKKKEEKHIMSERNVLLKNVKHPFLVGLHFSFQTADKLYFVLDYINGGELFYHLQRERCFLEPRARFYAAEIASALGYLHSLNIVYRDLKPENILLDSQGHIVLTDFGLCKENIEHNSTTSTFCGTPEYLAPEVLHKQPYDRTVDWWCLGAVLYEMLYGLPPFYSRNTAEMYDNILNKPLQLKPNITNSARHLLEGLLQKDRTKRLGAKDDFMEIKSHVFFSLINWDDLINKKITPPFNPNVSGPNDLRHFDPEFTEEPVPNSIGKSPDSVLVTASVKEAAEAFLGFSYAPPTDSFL

Structure (SMILES): Cc1nc2ccc3sc(NC(=O)c4ccc5ncsc5c4)nc3c2s1 [3A5, N-(2-methyl[1,3]thiazolo[5,4-e][1,3]benzothiazol-7-yl)-1,3-benzothiazole-6-carboxamide]
- Aurora B activity in kinase profiling (Aurora B): 69
- BTK activity in kinase profiling (BTK): 106
- CDK2-Cyclin A activity in kinase profiling (CDK2-Cyclin A): 115
- CLK2 activity in kinase profiling (CLK2): 3.39
- inhibition at 1 µM (CLK2): 97%
- CSK activity in kinase profiling (CSK): 93
- DDR2 activity in kinase profiling (DDR2): 88
- DYRK2 activity in kinase profiling (DYRK2): 61
- EPH-A2 activity in kinase profiling (EPH-A2): 134
- EPH-B1 activity in kinase profiling (EPH-B1): 101
- EPH-B4 activity in kinase profiling (EPH-B4): 103
- HER4 activity in kinase profiling (HER4): 94
- HIPK1 activity in kinase profiling (HIPK1): 105
- HIPK3 activity in kinase profiling (HIPK3): 100
- IKKe activity in kinase profiling (IKKe): 107
- IRAK1 activity in kinase profiling (IRAK1): 88
- IRAK4 activity in kinase profiling (IRAK4): 46
- JAK2 activity in kinase profiling (JAK2): 112
- JNK3 activity in kinase profiling (JNK3): 107
- MAP4K3 activity in kinase profiling (MAP4K3): 125
- MAP4K5 activity in kinase profiling (MAP4K5): 91
- MARK4 activity in kinase profiling (MARK4): 80
- MINK1 activity in kinase profiling (MINK1): 89
- MPSK1 activity in kinase profiling (MPSK1): 150
- MST4 activity in kinase profiling (MST4): 90
- NEK2a activity in kinase profiling (NEK2a): 81
- NUAK1 activity in kinase profiling (NUAK1): 73
- PAK2 activity in kinase profiling (PAK2): 92
- PAK4 activity in kinase profiling (PAK4): 84
- PAK5 activity in kinase profiling (PAK5): 75
- PIM2 activity in kinase profiling (PIM2): 78
- activity at 1 µM (PKBa): 123%
- PKCa activity in kinase profiling (PKCa): 100
- PKCγ activity in kinase profiling (PKCγ): 102
- PRK2 activity in kinase profiling (PRK2): 95
- SGK1 activity in kinase profiling (SGK1): 85
- SIK2 activity in kinase profiling (SIK2): 91
- SRPK1 activity in kinase profiling (SRPK1): 56
- TAO1 activity in kinase profiling (TAO1): 94
- TESK1 activity in kinase profiling (TESK1): 96
- TTBK1 activity in kinase profiling (TTBK1): 101
- ULK1 activity in kinase profiling (ULK1): 138
- WNK1 activity in kinase profiling (WNK1): 99

Structure (SMILES): CSc1nc2ccc3nc(NC(=O)c4ccco4)sc3c2s1 [5E4, N-[7-(methylsulfanyl)[1,3]thiazolo[4,5-g][1,3]benzothiazol-2-yl]-2-furamide]
- Aurora B activity in kinase profiling (Aurora B): 64
- BTK activity in kinase profiling (BTK): 105
- CDK2-Cyclin A activity in kinase profiling (CDK2-Cyclin A): 101
- CLK2 activity in kinase profiling (CLK2): 3
- inhibition at 1 µM (CLK2): 97%
- CSK activity in kinase profiling (CSK): 99
- DDR2 activity in kinase profiling (DDR2): 95
- DYRK2 activity in kinase profiling (DYRK2): 9
- EPH-A2 activity in kinase profiling (EPH-A2): 162
- EPH-B1 activity in kinase profiling (EPH-B1): 93
- EPH-B4 activity in kinase profiling (EPH-B4): 84
- HER4 activity in kinase profiling (HER4): 102
- HIPK1 activity in kinase profiling (HIPK1): 25
- HIPK3 activity in kinase profiling (HIPK3): 50
- IKKe activity in kinase profiling (IKKe): 102
- IRAK1 activity in kinase profiling (IRAK1): 87
- IRAK4 activity in kinase profiling (IRAK4): 50
- JAK2 activity in kinase profiling (JAK2): 105
- JNK3 activity in kinase profiling (JNK3): 123
- MAP4K3 activity in kinase profiling (MAP4K3): 121
- MAP4K5 activity in kinase profiling (MAP4K5): 89
- MARK4 activity in kinase profiling (MARK4): 87
- MINK1 activity in kinase profiling (MINK1): 8
- MPSK1 activity in kinase profiling (MPSK1): 114
- MST4 activity in kinase profiling (MST4): 93
- NEK2a activity in kinase profiling (NEK2a): 83
- NUAK1 activity in kinase profiling (NUAK1): 82
- PAK2 activity in kinase profiling (PAK2): 97
- PAK4 activity in kinase profiling (PAK4): 74
- PAK5 activity in kinase profiling (PAK5): 81
- PIM2 activity in kinase profiling (PIM2): 71
- activity at 1 µM (PKBa): 103%
- PKCa activity in kinase profiling (PKCa): 81
- PKCγ activity in kinase profiling (PKCγ): 100
- PRK2 activity in kinase profiling (PRK2): 88
- SGK1 activity in kinase profiling (SGK1): 88
- SIK2 activity in kinase profiling (SIK2): 94
- SRPK1 activity in kinase profiling (SRPK1): 81
- TAO1 activity in kinase profiling (TAO1): 99
- TESK1 activity in kinase profiling (TESK1): 95
- TTBK1 activity in kinase profiling (TTBK1): 99
- ULK1 activity in kinase profiling (ULK1): 127
- WNK1 activity in kinase profiling (WNK1): 90
